Data reported in US20100190846A1, “MICROBICIDAL AGENT AND MICROBICIDAL COMPOSITION” (priority 2006, published 2010).

Assays:
Format in all cases: cell-based
Bacillus cereus = assay: Agar dilution method microbicidal test; for Growth on agar plate: key: +: grew; −: did not grow
Summary of the method: (§1)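 Compound stocks in DMSO mixed into BHI agar → plates at 4.0 to 0.25 mg/mL final; MHB suspensions (turbidity 1, 10^8/mL) diluted 100-fold, 10 μL spotted; 37° C, 18 h; MIC = lowest growth-inhibiting conc.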

Bacillus subtilis MB-32 = assay: Agar dilution method microbicidal test; for Growth on agar plate: key: +: grew; −: did not grow
Summary of the method: as §1

Candida sp. = assay: Agar dilution method microbicidal test; for Growth on agar plate: key: +: grew; −: did not grow
Summary of the method: as §1

Salmonella sp. = assay: Agar dilution method microbicidal test; for Growth on agar plate: key: +: grew; −: did not grow
Summary of the method: as §1

Vibrio parahaemolyticus = assay: Agar dilution method microbicidal test; for Growth on agar plate: key: +: grew; −: did not grow
Summary of the method: as §1

Yersinia enterocolitica [1] = assay: Agar dilution method microbicidal test; for Growth on agar plate: key: +: grew; −: did not grow
Summary of the method: as §1

Yersinia enterocolitica [2] = assay: Paper disk method microbicidal test; settings: 2.5 mg/mL solution on 8.12 mm paper disk, 0 mg/mL control: 15.65 (flavone, 40% DMSO), — (catechin)
Experimental: As microbicidal test method for 5,7,4′-trihydroxy-3′,5′-dimethoxyflavone, the paper disk method was employed, by which method the microbicidal activity can be judged even in cases where a solvent has some influences.
In paper disk method, sample solutions having various sample concentration are prepared, and the sample solution was absorbed in a special paper disk, followed by drying the paper disk. Onto the plate which is made by mixing a prepared bacterial suspension with agar medium, the paper disks are placed. If the sample has a microbicidal activity, the inhibition ring which indicates the inhibition of bacterial growth is formed such that the center of the ring is coincident with the paper disk. The degree of a microbicidal activity is judged based on the size of the inhibition ring.
First, 4 mg of 5,7,4′-trihydroxy-3′,5′-dimethoxyflavone sample was dissolved in 200 μL to prepare 20 mg/mL sample solution. To 100 μL of this 20 mg/mL sample solution, 100 μL of sterilized water was added to prepare 200 μL of 10 mg/mL sample solution. To the solution, 60 μL DMSO and 140 μL of sterilized water were added to prepare 400 μL of 5.0 mg/mL sample solution. DMSO was used in the concentration of 40%, because the sample precipitated from 30% DMSO. To 350 μL of 5.0 mg/mL sample solution, 140 μL DMSO and 210 μL of sterilized water were added to prepare 700 μL of 2.5 mg/mL sample solution. In the same manner, 1.25 mg/mL and 0.625 mg/mL sample solutions were prepared. As a control, a solution containing 40% DMSO and 60% sterilized water was prepared. […] In a paper disk (8.12 mm diameter), 70 μL of these solutions each was absorbed, and the paper disks were dried for a day.
As test bacteria, Staphylococcus aureus, Salmonella sp., Yersinia enterocolitica, Pseudomonas aeruginosa, and Candida sp. were used. These bacteria were mixed with 2 mL of sterilized water to prepare bacterial suspensions having turbidity 1 (10^8/mL). The plate agar was made by mixing 0.2 mL of the bacterial suspension with 19.8 mL of BHI medium. The dried paper disk was placed onto the plate agar, and the plate was incubated in an incubator at 37° C., followed by assessing the activity. In the Table, (-) represents that no microbicidal activity was observed.

## catechin [reference compound]
Bacillus cereus; 0.25 mg/mL
  Growth on agar plate: +
Bacillus cereus; 0.5 mg/mL
  Growth on agar plate: +
Bacillus cereus; 1.0 mg/mL
  Growth on agar plate: −
Bacillus cereus; 2.0 mg/mL
  Growth on agar plate: −
Bacillus cereus; 3.0 mg/mL
  Growth on agar plate: −
Bacillus cereus; 4.0 mg/mL
  Growth on agar plate: −
Bacillus cereus; BHI agar, 37° C., 18 hours
  MIC: 1000 µg/mL
Bacillus subtilis MB-32; 0.25 mg/mL
  Growth on agar plate: +
Bacillus subtilis MB-32; 0.5 mg/mL
  Growth on agar plate: +
Bacillus subtilis MB-32; 1.0 mg/mL
  Growth on agar plate: +
Bacillus subtilis MB-32; 2.0 mg/mL
  Growth on agar plate: −
Bacillus subtilis MB-32; 3.0 mg/mL
  Growth on agar plate: −
Bacillus subtilis MB-32; 4.0 mg/mL
  Growth on agar plate: −
Bacillus subtilis MB-32; BHI agar, 37° C., 18 hours
  MIC: 2000 µg/mL
Candida sp.; 0.25 mg/mL
  Growth on agar plate: +
Candida sp.; 0.5 mg/mL
  Growth on agar plate: +
Candida sp.; 1.0 mg/mL
  Growth on agar plate: −
Candida sp.; 2.0 mg/mL
  Growth on agar plate: −
Candida sp.; 3.0 mg/mL
  Growth on agar plate: −
Candida sp.; 4.0 mg/mL
  Growth on agar plate: −
Candida sp.; BHI agar, 37° C., 18 hours
  MIC: 1000 µg/mL
Salmonella sp.; 0.25 mg/mL
  Growth on agar plate: +
Salmonella sp.; 0.5 mg/mL
  Growth on agar plate: +
Salmonella sp.; 1.0 mg/mL
  Growth on agar plate: +
Salmonella sp.; 2.0 mg/mL
  Growth on agar plate: −
Salmonella sp.; 3.0 mg/mL
  Growth on agar plate: −
Salmonella sp.; 4.0 mg/mL
  Growth on agar plate: −
Salmonella sp.; BHI agar, 37° C., 18 hours
  MIC: 2000 µg/mL
Vibrio parahaemolyticus; 0.25 mg/mL
  Growth on agar plate: +
Vibrio parahaemolyticus; 0.5 mg/mL
  Growth on agar plate: −
Vibrio parahaemolyticus; 1.0 mg/mL
  Growth on agar plate: −
Vibrio parahaemolyticus; 2.0 mg/mL
  Growth on agar plate: −
Vibrio parahaemolyticus; 3.0 mg/mL
  Growth on agar plate: −
Vibrio parahaemolyticus; 4.0 mg/mL
  Growth on agar plate: −
Vibrio parahaemolyticus; BHI agar, 37° C., 18 hours
  MIC: 500 µg/mL
Yersinia enterocolitica [1]; 0.25 mg/mL
  Growth on agar plate: +
Yersinia enterocolitica [1]; 0.5 mg/mL
  Growth on agar plate: +
Yersinia enterocolitica [1]; 1.0 mg/mL
  Growth on agar plate: −
Yersinia enterocolitica [1]; 2.0 mg/mL
  Growth on agar plate: −
Yersinia enterocolitica [1]; 3.0 mg/mL
  Growth on agar plate: −
Yersinia enterocolitica [1]; 4.0 mg/mL
  Growth on agar plate: −
Yersinia enterocolitica [1]; BHI agar, 37° C., 18 hours
  MIC: 1000 µg/mL
Yersinia enterocolitica [2]
  size of the inhibition ring: 9.49
